{"source": "patent US6514969B2", "about": "“β-amyloid inhibitors, processes for preparing them, and their use in pharmaceutical compositions” (Boehringer Ingelheim Pharma KG, priority 2000, dated 2003)", "test_system": "Aβ formation in human astroglioma cells (U 373) transfected with human APP751 (U373-K10)", "assay": "Inhibition of Aβ formation in medium of APP751-overexpressing U373-K10 cells (ELISA)", "type": "cell-based", "conditions": "U373 MG", "source_text": "The compounds according to the invention are characterized in that they inhibit the process of the formation of Aβ or its release from cells. This property was investigated according to the test described below.\nThe inhibition of Aβ formation was investigated in the medium of a cell line overexpressing APP751. For this purpose, human astroglioma cells (U 373, ATCC) were stably transfected with the gene for human APP751 under the control of a CMV promoter (vector pRC-CMV). A clone with a high APP751 expression (U373-K10) was selected. In order to carry out the assay the cells are plated out in 96-well plates (Falcon) in Dulbecco's-Minimal-Essential medium (DMEM, Bio-Whittaker) with 10% FCS and cultivated to confluence at 37° C./5% CO2.\nThe substances to be tested are first dissolved in 100% DMSO and then diluted to the test concentration in culture medium, so that the DMSO concentration of the test solution is always below 0.5%.\n150 μl of the test solution are added per well to a confluent culture plate which has previously been washed once with DMEM, and pre-incubated for about 16 hours. This solution is replaced by 150 μl of fresh test solution after 1 wash and incubated again for 4 hours.\n100 μl of this four-hour supernatant are transferred to an ELISA plate (Nunc) coated with the antibody 6E10 (specific for Aβ1-16, Senetek), and incubated overnight at 4° C. The Aβ is determined the next day by means of the alkaline phosphatase-conjugated antibody 6B10, which is specific for Aβ32-40."}
{"smiles": "O=c1[nH]c2ccccc2n1C1CCN(CCCc2c(-c3ccccc3)nc3ccccn23)CC1", "note": "[Example 12, 1-{1-[3-(2-phenylimidazo[1,2-a]pyridin-3-yl)propyl]piperidin-4-yl}-1,3-dihydrobenzimidazol-2-one]", "values": [{"measurement": "IC50", "result": 12, "unit": "µM"}]}
{"smiles": "O=c1[nH]c2ccccc2n1C1CCN(CCCc2c(-c3ccc(Cl)cc3)nc3ccccn23)CC1", "note": "[Example 13, 1-{1-[3-(2-p-chlorophenylimidazo[1,2-a]pyridin-3-yl)propyl]piperidin-4-yl}-1,3-dihydrobenzimidazol-2-one]", "values": [{"measurement": "IC50", "result": 15, "unit": "µM"}]}
{"smiles": "Clc1ccc(-c2nc3ccccn3c2CCCN2CCN(Cc3ccccc3)CC2)cc1", "note": "[Example 14, 3-[3-(4-benzylpiperazin-1-yl)propyl]-2-(4-chlorophenyl)imidazo[1,2-a]pyridine]", "values": [{"measurement": "IC50", "result": 30, "unit": "µM"}]}
{"smiles": "Clc1ccc(CN2CCN(CCCc3c(-c4ccc(Cl)cc4)nc4ccccn34)CC2)cc1", "note": "[Example 20, 3-{3-[4-(4-chlorobenzyl)piperazin-1-yl]propyl}-2-(4-chlorophenyl)imidazo[1,2-a]pyridine]", "values": [{"measurement": "IC50", "result": 35, "unit": "µM"}]}
{"smiles": "O=C(/C=C/c1c(-c2ccccc2)nc2ccccn12)N1CCC(n2c(=O)[nH]c3ccccc32)CC1", "note": "[Example 21]", "values": [{"measurement": "IC50", "result": 20, "unit": "µM"}]}
